≈ marks a conversion by molar mass, not a printed value. Read-outs that look alike come from different tables or passages of the source.
Key:
Type in all cases: cell-based
[1] = tested on: Morganella morganii IFO3848; test: Antibacterial test, agar plate dilution method (MIC), standard strains; conditions: Morganella morganii, IFO3848, 18 h, MH agar, 37°C, read-out: MIC
Description: (§1) The antibacterial activities were tested by an agar plate dilution method in accordance with the standard method of The Japanese Chemotherapy Society [Chemotherapy, Vol. 29, 76-79 (1981)].
(§2) A Mueller-Hinton (MH) agar liquid medium of a test microorganism was cultured overnight at 37°C and the resultant culture medium was diluted with a buffered saline gelatin (BSG) solution to contain approximately 10⁶ cells of the test microorganisms per milliliter, and then the diluted solution was inoculated with a microplanter at the rate of approximately 5 microliters on a MH agar medium containing a test compound. This medium was then incubated at 37°C for 18 hours. The minimum inhibitory concentration (MIC) is determined as a minimum concentration in which no test microorganism could grow. It is noted here that the test organisms used were all standard strains.

[2] = tested on: Proteus mirabilis IFO3849; test: as above; conditions: Proteus mirabilis, IFO3849, 18 h
Description: as §1, §2

Proteus vulgaris HX-19 = test: as above; conditions: Proteus vulgaris, HX19, 18 h
Description: as §1, §2

Proteus vulgaris OX-19 = test: as above; conditions: Proteus vulgaris, OX19, 18 h
Description: as §1, §2

[3] = tested on: Providencia rettgeri IFO 3850; test: as above; conditions: Providencia rettgeri, IFO3850, 18 h, MH agar, 37°C, read-out: MIC
Description: as §1, §2

[4] = tested on: Pseudomanas aeruginosa NCTC 10940; test: as above; conditions: 18 h, MH agar, 37°C, read-out: MIC
Description: as §1, §2

[5] = tested on: Pseudomonas aeruginosa IFO 3445; test: as above; conditions: IFO3445, MH agar, 37°C, 18 hours, read-out: MIC
Description: as §1, §2

[6] = tested on: Salmonella enteritidis G14; test: as above; conditions: Salmonella enterica, MH agar, 37°C
Description: as §1, §2

[7] = tested on: Salmonella paratyphi 1015; test: as above; conditions: Salmonella enterica, MH agar, 37°C, 18 hours, read-out: MIC
Description: as §1, §2

[8] = tested on: Salmonella schottmuelleri 8006; test: as above; conditions: MH agar, 37°C, 18 hours, read-out: MIC
Description: as §1, §2

Salmonella typhi 901 = test: as above; conditions: Salmonella enterica, TYPHI, 18 h, MH agar, 37°C
Description: as §1, §2

[9] = tested on: Serratia marcescens IAM1184; test: as above; conditions: MH agar, 37°C
Description: as §1, §2

[10] = tested on: Citrobactor freundii GN 346; test: Antibacterial activity against clinically isolated β-lactamase (cephalosporinase) producing strains (MIC); conditions: cephalosporinase producing strain, SDA, 18 to 20 hours
Description: (§3) The antibacterial activities against clinically isolated β-lactamase producing strains were tested by the agar plate dilution method in accordance with the standard method of The Japanese Chemotherapy Society [Chemotherapy, Vol. 29, 76-79 (1981)]. A solution of a cephalosporinase producing strain stored by Episome Research Institute, prepared by incubating the strain in a sensitivity test broth (STB; product of Nissui K. K.) for 18 hours, was diluted with a fresh STB solution so that the solution contained 10⁶ cells per milliliter. The diluted solution was then inoculated as spots in a microplanter on a sensitivity disk agar-N (SDA; product of Nissui K. K.) containing a test compound. The disk agar was then incubated for 18 to 20 hours. The minimum inhibitory concentration was determined as a minimum concentration in which the test microorganism no longer grew after a 18 to 20-hour incubation.

[11] = tested on: Citrobactor freundii GN 7391; test: as above; conditions: cephalosporinase producing strain, SDA, 18 to 20 hours
Description: as §3

[12] = tested on: Enterobacter cloacae GN 5797; test: as above; conditions: GN5797, cephalosporinase producing strain, SDA, 18 to 20 hours, read-out: MIC
Description: as §3

Escherichia coli GN 5482 = test: as above; conditions: GN5482, cephalosporinase producing strain, SDA, 18 to 20 hours, read-out: MIC
Description: as §3

[13] = tested on: Escherichia coli No. 1501; test: as above; conditions: cephalosporinase producing strain, SDA, 18 to 20 hours, read-out: MIC
Description: as §3

[14] = tested on: Klebsiella oxytoca GN 10650; test: as above; conditions: Klebsiella oxytoca, GN10650, Klebsiella oxytoca GN 10650; cephalosporinase producing strain, SDA, 18 to 20 hours; read-out: MIC
Description: as §3

Proteus morganii GN 5307 = test: as above; conditions: cephalosporinase producing strain, SDA, 18 to 20 hours
Description: as §3

Proteus vulgaris GN 76 = test: as above; conditions: Proteus vulgaris, GN76, Proteus vulgaris GN 76; cephalosporinase producing strain, SDA, 18 to 20 hours; read-out: MIC
Description: as §3

Proteus vulgaris GN 7919 = test: as above; conditions: cephalosporinase producing strain, SDA, 18 to 20 hours
Description: as §3

[15] = tested on: Providencia rettgeri GN 4430; test: as above; conditions: GN4430, cephalosporinase producing strain, SDA, 18 to 20 hours, read-out: MIC
Description: as §3

[16] = tested on: Providencia rettgeri GN 4762; test: as above; conditions: Providencia rettgeri, GN4762, Providencia rettgeri GN 4762; cephalosporinase producing strain, SDA, 18 to 20 hours; read-out: MIC
Description: as §3

[17] = tested on: Providencia rettgeri GN 5284; test: as above; conditions: GN5284, cephalosporinase producing strain, SDA, 18 to 20 hours, read-out: MIC
Description: as §3

[18] = tested on: Pseudomonas aeruginosa GN 10362; test: as above; conditions: GN10362, cephalosporinase producing strain, SDA, 18 to 20 hours, read-out: MIC
Description: as §3

[19] = tested on: Serratia marcescens GN 10857; test: as above; conditions: Serratia marcescens, GN10857, Serratia marcescens GN 10857; cephalosporinase producing strain, SDA, 18 to 20 hours; read-out: MIC
Description: as §3

Serratia marcescens L-82 = test: as above; conditions: L82, cephalosporinase producing strain, SDA, 18 to 20 hours, read-out: MIC
Description: as §3

SMILES | MIC [1] | MIC (Proteus vulgaris HX-19) | MIC (Proteus vulgaris OX-19) | MIC [3] | MIC [4] | MIC [5] | MIC [7] | MIC [8] | MIC (Salmonella typhi 901) | MIC [10] | MIC [11] | MIC [12] | MIC (Escherichia coli GN 5482) | MIC [13] | MIC [14] | MIC (Proteus vulgaris GN 76) | MIC [15] | MIC [16] | MIC [17] | MIC [18] | further results
C[C@@H](O)[C@H]1C(=O)N2C(C(=O)O)=C(SCCN=CN)C[C@H]12 [Imipenem, imipenem] | 0.39 µg/mL (≈ 1.3 µM) | 1.56 µg/mL (≈ 5.21 µM) | 1.56 µg/mL (≈ 5.21 µM) | 0.78 µg/mL (≈ 2.61 µM) | 0.78 µg/mL (≈ 2.61 µM) | 0.78 µg/mL (≈ 2.61 µM) | 1.56 µg/mL (≈ 5.21 µM) | 0.78 µg/mL (≈ 2.61 µM) | 0.1 µg/mL (≈ 0.334 µM) | 0.39 µg/mL (≈ 1.3 µM) | 0.78 µg/mL (≈ 2.61 µM) | 0.39 µg/mL (≈ 1.3 µM) | 0.1 µg/mL (≈ 0.334 µM) | 0.1 µg/mL (≈ 0.334 µM) | 0.2 µg/mL (≈ 0.668 µM) | 3.13 µg/mL (≈ 10.5 µM) | 0.39 µg/mL (≈ 1.3 µM) | 0.39 µg/mL (≈ 1.3 µM) | 0.39 µg/mL (≈ 1.3 µM) | 0.78 µg/mL (≈ 2.61 µM) | MIC [2]: 6.25 µg/mL (≈ 20.9 µM); MIC ([6]; 18 hours, read-out: MIC): 0.78 µg/mL (≈ 2.61 µM); MIC ([9]; Serratia marcescens, IAM1184, 18 h, read-out: MIC): 0.39 µg/mL (≈ 1.3 µM); MIC (Proteus morganii GN 5307; Morganella morganii, GN5307, Proteus morganii GN 5307, read-out: MIC): 0.78 µg/mL (≈ 2.61 µM); MIC (Proteus vulgaris GN 7919; Proteus vulgaris, GN7919, Proteus vulgaris GN 7919, read-out: MIC): 0.39 µg/mL (≈ 1.3 µM); MIC [19]: 3.13 µg/mL (≈ 10.5 µM); MIC (Serratia marcescens L-82): 0.2 µg/mL (≈ 0.668 µM)
C[C@@H](O)[C@H]1C(=O)N2C(C(=O)[O-])=C(SCc3cs[n+](C)n3)[C@H](C)[C@H]12 [Amorphous Compd. (14), (1R,5S,6S)-2-[(2-methyl-1,2,3-thiadiazolium-4-yl)methyl]thio-6-[(R)-1-hydroxyethyl]-1-methyl-carbapenem-3-carboxylate] | 0.39 µg/mL (≈ 1.1 µM) | 1.56 µg/mL (≈ 4.39 µM) | 1.56 µg/mL (≈ 4.39 µM) | 0.05 µg/mL (≈ 0.141 µM) | 0.39 µg/mL (≈ 1.1 µM) | 0.39 µg/mL (≈ 1.1 µM) | 1.56 µg/mL (≈ 4.39 µM) | 0.39 µg/mL (≈ 1.1 µM) | 0.025 µg/mL (≈ 0.0703 µM) | 0.78 µg/mL (≈ 2.19 µM) | 1.56 µg/mL (≈ 4.39 µM) | 0.1 µg/mL (≈ 0.281 µM) | 0.05 µg/mL (≈ 0.141 µM) | 0.05 µg/mL (≈ 0.141 µM) | 0.39 µg/mL (≈ 1.1 µM) | 6.25 µg/mL (≈ 17.6 µM) | 0.39 µg/mL (≈ 1.1 µM) | 0.39 µg/mL (≈ 1.1 µM) | 0.39 µg/mL (≈ 1.1 µM) | 0.78 µg/mL (≈ 2.19 µM) | MIC ([2]; Proteus mirabilis IFO3849, MH agar, 37°C, 18 hours, read-out: MIC): 6.25 µg/mL (≈ 17.6 µM); MIC ([6]; ENTERITIDIS, 18 h): 1.56 µg/mL (≈ 4.39 µM); MIC ([9]; 18 hours): 0.2 µg/mL (≈ 0.563 µM); MIC (Proteus morganii GN 5307; Proteus morganii GN 5307): 3.13 µg/mL (≈ 8.81 µM); MIC (Proteus vulgaris GN 7919; Proteus vulgaris GN 7919): 6.25 µg/mL (≈ 17.6 µM); MIC [19]: 6.25 µg/mL (≈ 17.6 µM); MIC (Serratia marcescens L-82): 0.2 µg/mL (≈ 0.563 µM)

— patent EP0326640B1, “(1R,5S,6S)-2-substituted thio-6 (R)-1-hydroxyethyl -1-methyl-carbapenem - carboxylic acid derivatives” (LEDERLE (JAPAN) LTD., priority 1987, dated 1989)
